Measurements from patent US10689367B2, “Triazole pyridyl compounds as agonists of the APJ receptor” (AMGEN INC., priority 2016, dated 2020).

Target: human APJ receptor (Homo sapiens (Human), UniProt P35414)
Experiment: [35S]GTPγS binding assay on membranes from CHO cells stably expressing human APJ receptor
Type: biochemical
Settings: membranes of CHO cells stably expressing human APJ receptor, read-out: Activity hAPJ SPA EC50 IP
Procedure, shortened: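 [35S]GTPγS binding measured on membranes from CHO cells stably expressing FLAG-tagged human APJ, with GDP, MgCl2 and NaCl levels optimized beforehand. Incubation 90 min at RT, imager read-out; EC50 from non-linear regression, averaged over several independent experiments.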

Chain of human APJ receptor (P35414 whole entry): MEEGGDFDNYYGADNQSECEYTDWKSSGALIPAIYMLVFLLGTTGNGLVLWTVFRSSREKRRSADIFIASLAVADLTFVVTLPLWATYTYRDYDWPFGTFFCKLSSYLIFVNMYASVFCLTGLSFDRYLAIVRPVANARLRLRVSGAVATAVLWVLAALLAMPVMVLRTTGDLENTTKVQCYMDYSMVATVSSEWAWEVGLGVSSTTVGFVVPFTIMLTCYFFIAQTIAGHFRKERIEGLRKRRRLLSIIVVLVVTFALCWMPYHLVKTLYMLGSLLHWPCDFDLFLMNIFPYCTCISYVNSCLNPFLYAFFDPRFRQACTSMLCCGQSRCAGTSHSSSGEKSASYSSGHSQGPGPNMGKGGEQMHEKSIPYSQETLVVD

Question: How did the EC50 turn out when `COc1cccc(-c2nnc(NS(=O)(=O)[C@@H](C)[C@@H](OC(C)C)c3ncc(C)cn3)n2[C@@H](C)c2ccno2)n1` (single isomer, unassigned) [Example 217.0, (1S,2S)-N-(5-(6-methoxy-2-pyridinyl)-4-((1R)-1-(1,2-oxazol-5-yl)ethyl)-4H-1,2,4-triazol-3-yl)-1-(5-methyl-2-pyrimidinyl)-1-(2-propanyloxy)-2-propanesulfonamide or (1S,2S)-N-(5-(6-methoxy-2-pyridinyl)-4-((1S)-1-(1,2-oxazol-5-yl)ethyl)-4H-1,2,4-triazol-3-yl)-1-(5-methyl-2-pyrimidinyl)-1-(2-propanyloxy)-2-propanesulfonamide] was run?
Answer: 5.3 nM

Question: Which EC50 does the source give for `CC[C@@H](c1c(C)noc1C)n1c(NS(=O)(=O)[C@@H](C)[C@H](OC)c2ncc(Cl)cn2)nnc1-c1cccc(OC)n1` (single isomer, unassigned) [Example 218.0, (1R,2S)-1-(5-chloro-2-pyrimidinyl)-N-(4-((1S)-1-(3,5-dimethyl-1,2-oxazol-4-yl)propyl)-5-(6-methoxy-2-pyridinyl)-4H-1,2,4-triazol-3-yl)-1-methoxy-2-propanesulfonamide or (1R,2S)-1-(5-chloro-2-pyrimidinyl)-N-(4-((1S)-1-(3,5-dimethyl-1,2-oxazol-4-yl)propyl)-5-(6-methoxy-2-pyridinyl)-4H-1,2,4-triazol-3-yl)-1-methoxy-2-propanesulfonamide] here?
Answer: 3.7 nM

Question: For `CC[C@@H](c1c(C)noc1C)n1c(NS(=O)(=O)[C@@H](C)[C@H](OC)c2ncc(Cl)cn2)nnc1-c1cccc(OC)n1` (single isomer, unassigned) [Example 219.0, (1R,2S)-1-(5-chloro-2-pyrimidinyl)-N-(4-((1R)-1-(3,5-dimethyl-1,2-oxazol-4-yl)propyl)-5-(6-methoxy-2-pyridinyl)-4H-1,2,4-triazol-3-yl)-1-methoxy-2-propanesulfonamide or (1R,2S)-1-(5-chloro-2-pyrimidinyl)-N-(4-((1S)-1-(3,5-dimethyl-1,2-oxazol-4-yl)propyl)-5-(6-methoxy-2-pyridinyl)-4H-1,2,4-triazol-3-yl)-1-methoxy-2-propanesulfonamide], which EC50 is on record?
Answer: 1.8 nM

Question: With `CC[C@@H](c1c(C)noc1C)n1c(NS(=O)(=O)[C@@H](C)[C@@H](OC(C)C)c2ncc(C)cn2)nnc1-c1cccc(OC)n1` (single isomer, unassigned) [Example 220.0, (1S,2S)-N-(4-((1S)-1-(3,5-dimethyl-1,2-oxazol-4-yl)propyl)-5-(6-methoxy-2-pyridinyl)-4H-1,2,4-triazol-3-yl)-1-(5-methyl-2-pyrimidinyl)-1-(2-propanyloxy)-2-propanesulfonamide or (1S,2S)-N-(4-((1R)-1-(3,5-dimethyl-1,2-oxazol-4-yl)propyl)-5-(6-methoxy-2-pyridinyl)-4H-1,2,4-triazol-3-yl)-1-(5-methyl-2-pyrimidinyl)-1-(2-propanyloxy)-2-propanesulfonamide] as the compound, how does the EC50 read?
Answer: 55 nM

Question: With `CC[C@@H](c1c(C)noc1C)n1c(NS(=O)(=O)[C@@H](C)[C@@H](OC(C)C)c2ncc(C)cn2)nnc1-c1cccc(OC)n1` (single isomer, unassigned) [Example 221.0, (1S,2S)-N-(4-((1R)-1-(3,5-dimethyl-1,2-oxazol-4-yl)propyl)-5-(6-methoxy-2-pyridinyl)-4H-1,2,4-triazol-3-yl)-1-(5-methyl-2-pyrimidinyl)-1-(2-propanyloxy)-2-propanesulfonamide or (1S,2S)-N-(4-((1S)-1-(3,5-dimethyl-1,2-oxazol-4-yl)propyl)-5-(6-methoxy-2-pyridinyl)-4H-1,2,4-triazol-3-yl)-1-(5-methyl-2-pyrimidinyl)-1-(2-propanyloxy)-2-propanesulfonamide] as the compound, how does the EC50 read?
Answer: 14 nM
